Patent US6348468B1, “Pyridazine compounds and compositions containing the same” (Kowa Co., Ltd., priority 1997, dated 2002)

How the values were obtained:
[1] = tested on: TNF-α Production; test: Inhibitory activity against TNF-α production (LPS-stimulated RAW 264.7 cells, L-929 cytotoxicity readout); format: cell-based; conditions: Mus musculus, RAW264.7, lipopolysaccharide, culturing for 20 hours
Method: RAW 264.7 cells were cultured until confluence on DMEM culture with 10% fetal bovine serum (FBS), and were diluted to 1×10^6 cells/ml with the same medium and then inoculated at 100 μl/well to a 96-well plate. To the cells, a test sample which had been diluted with the same medium and lipopolysaccharide of 4 μg/ml was added at 50 μl/well, respectively. Subsequent to culturing for 20 hours, the cultures were collected.
Making use of cytotoxicity to L-929 cell strain, a TNF-α sensitive cell strain, the amount of TNF-α in each of the cultures was measured as will be described next. Described specifically, L-929 cells which had been cultured on MEM medium with 10% FBS added thereto were diluted to 2×10^5 cells/ml with the same medium, and were then inoculated at 100 μl/well to a 96-well plate. Subsequent to overnight incubation, standard TNF-α solutions, or 100-fold, 200-fold and 500-fold dilute solutions of the above-described culture of RAW 264.7 cells were added at 50 μl/well, and actinomycin D (4 μg/ml) was also added at 50 μl/well, followed by further culturing for 20 hours. Twenty hours later, each well was washed with PBS, viable cells were stained with crystal violet, and the inhibitory activity against TNF-α production was determined with reference to a standard curve of TNF-α.

[2] = tested on: IL-6 Production; test: Inhibitory activity against IL-6 production (LPS-stimulated RAW 264.7 cells, ELISA); format: cell-based; conditions: Mus musculus, RAW264.7, lipopolysaccharide, culturing for 20 hours
Method: RAW 264.7 cells, which had been cultured until confluence on DMEM culture with 10% fetal bovine serum (FBS) added thereto, were diluted to 1×10^6 cells/ml with the same medium, and were then inoculated at 100 μl/well to a 96-well plate. A test sample which had been diluted with the same medium and lipopolysaccharide of 4 μg/ml in concentration was added at 50 μl/well, respectively. Subsequent to culturing for 20 hours, the cultures were collected.
The amount of IL-6 in each of the thus-obtained cultures of RAW 264.7 cells was measured by ELISA, and 5 the inhibitory activity against IL-6 production was determined with reference to a standard curve of IL-6.

[3] = tested on: Interleukin-1β (IL-1β) Production; test: Inhibitory activity against interleukin-1β production (LPS-stimulated HL-60 cells, ELISA); format: cell-based; conditions: Homo sapiens, 72 h, lipopolysaccharide 10 μg/ml, culturing for 3 days
Method: HL-60 cells were cultured for 4 days until confluence on RPMI 1640 medium with 10% fetal bovine serum (FBS) added thereto. The HL-60 cells were centrifuged. The supernatant was discarded, and the cells were then suspended at 1×10^6 cells/ml on RPMI 1640 medium with 3% FBS, and lipopolysaccharide was added to give a final concentration of 10 μg/ml. The culture was inoculated at 1 ml/well to a 24-well plate. A test sample was added at 1 μl/well, followed by culturing for 3 days. Three days later, the amount of interleukin-1β in each of the cultures was measured by ELISA. Its IC50 value was determined by a comparison in yield with a control to which no test sample was added.

[4] = tested on: rats; test: Maximum no-effect level, oral once a day for 2 weeks, rats; format: in vivo; conditions: orally once a day for 2 weeks
[5] = tested on: dogs; test: Maximum no-effect level, oral once a day for 2 weeks, dogs; format: in vivo; conditions: orally once a day for 2 weeks
[6] = tested on: collagen-induced arthritis models of mice; test: Therapeutic effects for arthritis in collagen-induced arthritis models of mice; format: in vivo; conditions: P.O.; for Percent inhibition to swelling: determined by quantitation of swelling; for Percent inhibition to arthritis development: determined depending on the existence or non-existence of swelling
Method: In accordance with the disclosure of Nature 283, 666-668, 1980, therapeutic effects for arthritis were evaluated by using collagen-induced arthritis models of mice.

Row | IC50 [3] [nM] | melting point [°C] | Compound | also measured
1 | 29000 |  | COc1ccc(-c2cc(=O)n(CCCl)nc2-c2ccc(OC)cc2)cc1 [Comp. Comp'd 1] | IC50 [1]: 10000 nM; IC50 [2]: 65000 nM
2 | 46000 |  | COc1ccc(-c2cc(=O)n(CCO)nc2-c2ccc(OC)cc2)cc1 [Comp. Comp'd 2] | IC50 [1]: 26000 nM; IC50 [2]: 44000 nM
3 | 430 | 167.4 to 168.4 | COc1ccc(-c2cc(=O)n(Cc3cccnc3)nc2-c2ccc(OC)cc2)cc1 [Example 44, 5,6-bis(4-methoxyphenyl)-2-(3-pyridylmethyl)-2H-pyridazin-3-one] | 
4 | 210 | 140.6 to 140.7 | CSc1ccc(-c2nn(Cc3ccccc3)c(=O)cc2-c2ccc(F)cc2)cc1 [Example 61, 5-(4-fluorophenyl)-6-[4-(methylthio)phenyl]-2-benzyl-2H-pyridazin-3-one] | 
5 | 390 | 139.3 to 139.5 | CSc1ccc(-c2nn(Cc3ccc(Cl)cc3Cl)c(=O)cc2-c2ccc(F)cc2)cc1 [Example 65, 5-(4-fluorophenyl)-6-[4-(methylthio)phenyl]-2-(2,4-dichlorobenzyl)-2H-pyridazin-3-one] | 
6 | 190 | 134.7 to 148.6 | COc1ccc(-c2cc(=S)n(Cc3ccccc3)nc2-c2ccc(OC)cc2)cc1 [Example 123, 5,6-bis(4-methoxyphenyl)-2-benzyl-2H-pyridazine-3-thione] | 
7 | 200 | 183.2 to 183.4 | CSc1ccc(-c2nn(Cc3ccc(Cl)cc3Cl)c(=S)cc2-c2ccc(Cl)cc2)cc1 [Example 134, 5-(4-chlorophenyl)-2-(2,4-dichlorobenzyl)-6-[4-(methylthio)phenyl]-2H-pyridazine-3-thione] | 
8 | 270 | 135.7 to 135.8 | CSc1ccc(-c2nn(CC3CC3)c(=S)cc2-c2ccc(F)cc2)cc1 [Example 137, 2-cyclopropylmethyl-5-(4-fluorophenyl)-6-[4-(methylthio)phenyl]-2H-pyridazine-3-thione] | 
9 | 180 |  | COc1ccc(-c2nn(Cc3ccc(Cl)cc3)c(=S)cc2-c2ccncc2)cc1 [Example 142, 2-(4-chlorobenzyl)-6-(4-methoxyphenyl)-5-(4-pyridyl)-2H-pyridazine-3-thione] | 
10 | 490 | 177.8 to 178.5 | CCn1nc(-c2ccc(OC)c(F)c2)c(-c2ccc(OC)c(F)c2)cc1=O [Example 160, 5,6-bis(3-fluoro-4-methoxyphenyl)-2-ethyl-2H-pyridazin-3-one] | 
11 | 610 |  | CCn1nc(-c2ccc(OC)cc2)c(-c2ccc(OC)cc2)cc1=O [Example 163, 5,6-bis(4-methoxyphenyl)-2-ethyl-2H-pyridazin-3-one] | IC50 [1]: 1200 nM; IC50 [2]: 400 nM
12 | 1130 |  | COc1ccc(-c2cc(=O)n(C)nc2-c2ccc(OC)cc2)cc1 [Example 164, 5,6-bis(4-methoxyphenyl)-2-methyl-2H-pyridazin-3-one] | 
13 | 1320 |  | COc1ccc(-c2cc(=O)n(C(C)C)nc2-c2ccc(OC)cc2)cc1 [Example 165, 5,6-bis(4-methoxyphenyl)-2-isopropyl-2H-pyridazin-3-one] | 
14 | 7980 |  | COc1ccc(-c2cc(=O)n(C3CC3)nc2-c2ccc(OC)cc2)cc1 [Example 168, 5,6-bis(4-methoxyphenyl)-2-cyclopropyl-2H-pyridazin-3-one] | 
15 | 1800 |  | COc1ccc(-c2cc(=O)n(CC3CC3)nc2-c2ccc(OC)cc2)cc1 [Example 169, 5,6-bis(4-methoxyphenyl)-2-cyclopropylmethyl-2H-pyridazin-3-one] | 
16 | 1190 |  | COc1ccc(-c2cc(=S)n(CC3CC3)nc2-c2ccc(OC)cc2)cc1 [Example 170, 5,6-bis(4-methoxyphenyl)-2-cyclopropylmethyl-2H-pyridazine-3-thione] | 
17 | 510 | 141.2 to 142.2 | COc1ccc(-c2cc(=O)n(C3CCCC3)nc2-c2ccc(OC)cc2)cc1 [Example 171, 5,6-bis(4-methoxyphenyl)-2-cyclopentyl-2H-pyridazin-3-one] | 
18 | 110 |  | COc1ccc(-c2cc(=O)n(CC3CCCC3)nc2-c2ccc(OC)cc2)cc1 [Example 172, 5,6-bis(4-methoxyphenyl)-2-cyclopentylmethyl-2H-pyridazin-3-one] | 

Row | Compound | IC50 [3] [nM] | melting point [°C] | also measured
19 | CSc1ccc(-c2nn(Cc3ccccc3)c(=O)cc2-c2ccc(Cl)cc2)cc1 [Example 51, 2-benzyl-5-(4-chlorophenyl)-6-[4-(methylthio)phenyl]-2H-pyridazin-3-one] | 290 |  | Maximum no-effect level (rat) [4]: 100 mg/kg; toxicity at the dose level of Table 4 (in words) [4]: no toxicity was observed at all; Maximum no-effect level (dog) [5]: 30 mg/kg; toxicity at the dose level of Table 4 (in words) [5]: no toxicity was observed at all; Percent inhibition to swelling ([6]; 1 mg/kg): 33.3%; Percent inhibition to arthritis development ([6]; 1 mg/kg): 40%; Percent inhibition to swelling ([6]; 3 mg/kg): 77.4%; Percent inhibition to arthritis development ([6]; 3 mg/kg): 50%
